These results are taken from ChEMBL document CHEMBL1149767, “Structural and biological studies of mononuclear palladium(II) complexes containing N-substituted thiosemicarbazones” (2008).

Holding throughout (assay type): functional
The subject of assay [1] is Staphylococcus aureus. In words: Antibacterial activity against Staphylococcus aureus assessed as diameter of inhibition zone at 1.0% after 24 hrs.
Assay [2] concerns Escherichia coli. The assay is described as follows: Antibacterial activity against Escherichia coli assessed as diameter of inhibition zone at 1.0% after 24 hrs.
Assay [3] concerns Pseudomonas aeruginosa. The assay is described as follows: Antibacterial activity against Pseudomonas aeruginosa assessed as diameter of inhibition zone at 0.5% after 24 hrs.
Assay [4] has as its system Vibrio cholerae. The assay is described as follows: Antibacterial activity against Vibrio cholerae assessed as diameter of inhibition zone at 1.0% after 24 hrs. Also on record: scale not given: the % may be the effect or the level left.
Assay [5] has as its system Pseudomonas aeruginosa. In words: Antibacterial activity against Pseudomonas aeruginosa assessed as diameter of inhibition zone at 1.0% after 24 hrs.
The subject of assay [6] is Vibrio cholerae. The assay is described as follows: Antibacterial activity against Vibrio cholerae assessed as diameter of inhibition zone at 0.5% after 24 hrs. Also on record: scale not given: the % may be the effect or the level left.
Assay [7] relates to Vibrio cholerae. The assay is described as follows: Antibacterial activity against Vibrio cholerae assessed as diameter of inhibition zone at 0.25% after 24 hrs. Also noted: scale not given: the % may be the effect or the level left.
The test system of assay [8] is Vibrio cholerae. The assay is described as follows: Antibacterial activity against Vibrio cholerae assessed as diameter of inhibition zone at 2.0% after 24 hrs. Also noted: scale not given: the % may be the effect or the level left.
Assay [9] has as its system Escherichia coli. The assay is described as follows: Antibacterial activity against Escherichia coli assessed as diameter of inhibition zone at 0.5% after 24 hrs.
The test system of assay [10] is Staphylococcus aureus. The assay is described as follows: Antibacterial activity against Staphylococcus aureus assessed as diameter of inhibition zone at 2.0% after 24 hrs.
Assay [11] deals with Staphylococcus aureus. In words: Antibacterial activity against Staphylococcus aureus assessed as diameter of inhibition zone at 0.5% after 24 hrs.
Assay [12] concerns Escherichia coli. In words: Antibacterial activity against Escherichia coli assessed as diameter of inhibition zone at 0.25% after 24 hrs.
Assay [13] deals with Pseudomonas aeruginosa. The assay is described as follows: Antibacterial activity against Pseudomonas aeruginosa assessed as diameter of inhibition zone at 2.0% after 24 hrs.
Assay [14] concerns Staphylococcus aureus. In words: Antibacterial activity against Staphylococcus aureus assessed as diameter of inhibition zone at 0.25% after 24 hrs.
The test system of assay [15] is Escherichia coli. The assay is described as follows: Antibacterial activity against Escherichia coli assessed as diameter of inhibition zone at 2.0% after 24 hrs.
The test system of assay [16] is Pseudomonas aeruginosa. In words: Antibacterial activity against Pseudomonas aeruginosa assessed as diameter of inhibition zone at 0.25% after 24 hrs.

With `Oc1ccccc1/C=N/NC(=S)Nc1ccccc1`, the inhibition zone (IZ) with Staphylococcus aureus [1] amounted to 8 mm; with Escherichia coli [2] it was 8 mm; in the assay on Pseudomonas aeruginosa [3] it was 5 mm; in the assay on Pseudomonas aeruginosa [5] it was 7 mm; in the assay on Escherichia coli [9], 7 mm; in the assay with Staphylococcus aureus [10], 9 mm. Further, the inhibition zone (IZ) with Staphylococcus aureus [11] came to 6 mm; in the assay with Escherichia coli [12], 5 mm; in the assay with Pseudomonas aeruginosa [13], 9 mm. Besides, the Activity in the assay on Vibrio cholerae [4] was 8%; with Vibrio cholerae [6] it was 6%; in the assay on Vibrio cholerae [7], 4%; in the assay on Vibrio cholerae [8], 9%.

Regarding `CN[C@@H]1[C@H](O[C@H]2[C@H](O[C@H]3[C@H](O)[C@@H](O)[C@H](N=C(N)N)[C@@H](O)[C@@H]3N=C(N)N)O[C@@H](C)[C@]2(O)C=O)O[C@@H](CO)[C@H](O)[C@H]1O` [STREPTOMYCIN], the inhibition zone (IZ) in the assay on Staphylococcus aureus [1] is 23 mm; in the assay on Escherichia coli [2], 22 mm; in the assay on Pseudomonas aeruginosa [3], 21 mm; in the assay on Pseudomonas aeruginosa [5], 23 mm; with Staphylococcus aureus [14] it was 17 mm; in the assay with Escherichia coli [15] it was 25 mm. The inhibition zone (IZ) stood at 20 mm with Escherichia coli [9]; 18 mm in the assay with Pseudomonas aeruginosa [16]; 25 mm in the assay on Staphylococcus aureus [10]; 19 mm in the assay on Staphylococcus aureus [11]; 18 mm with Escherichia coli [12]; 24 mm with Pseudomonas aeruginosa [13]. The Activity with Vibrio cholerae [4] was determined as 20%; with Vibrio cholerae [6], 17%; in the assay on Vibrio cholerae [7], 14%; with Vibrio cholerae [8], 22%.
